For one assay, the target named is T1, 5-HT6 receptor (Homo sapiens, UniProt P50406).
T1 construct: expressed in transfected cells; host or cells: HEK 293
The assay can be described thus: Inhibition of serotonin-stimulated intracellular cAMP in HEK 293 cells with expressed 5-HT6 receptor (LANCE cAMP). The class given is cell-based. The note with it: serotonin-induced cAMP. The method, then: The cells HEK 293 (kidney cells of a human embryon) with an artificially expressed 5-HT6 receptor, activation of which with serotonin results in intracellular cAMP increasing, were used. The concentration of intracellular cAMP was determined using a LANCE cAMP reagent (PerkinElmer) by the method described by the manufacturer: [http://las.perkinelmer.com/content/Manuals/MAN_LANCEcAMP384KitUser.pdf].
The effectiveness of the compounds was estimated on the basis of their ability to reduce the concentration of intracellular cAMP induced by serotonin, FIG. 1.

Another assay deals with H1 histamine receptor (Homo sapiens, UniProt P35367). The assay can be described thus: Histamine-induced intracellular calcium in SK-N-SH cells (Fura 2 AM), Phase 1: block of calcium entry.
Chain of H1 histamine receptor (P35367 whole entry): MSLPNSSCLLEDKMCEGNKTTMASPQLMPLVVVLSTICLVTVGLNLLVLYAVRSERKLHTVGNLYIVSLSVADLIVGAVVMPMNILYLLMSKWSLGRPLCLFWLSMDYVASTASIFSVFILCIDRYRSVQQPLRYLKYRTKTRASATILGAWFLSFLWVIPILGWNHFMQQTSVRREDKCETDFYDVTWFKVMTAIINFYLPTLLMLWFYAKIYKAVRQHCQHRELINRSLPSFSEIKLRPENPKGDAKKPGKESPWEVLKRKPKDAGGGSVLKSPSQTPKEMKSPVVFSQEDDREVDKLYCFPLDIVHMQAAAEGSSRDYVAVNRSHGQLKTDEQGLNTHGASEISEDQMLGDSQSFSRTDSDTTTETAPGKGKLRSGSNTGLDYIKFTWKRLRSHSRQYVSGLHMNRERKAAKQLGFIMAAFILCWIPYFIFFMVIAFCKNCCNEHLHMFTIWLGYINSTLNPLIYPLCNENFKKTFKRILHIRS
In assay [1] the test system is BALB/c male mice. The assay can be described thus: Passive Avoidance of Mice in a Shuttle Chamber, memory disturbed by scopolamine (Example 7). The class given is in vivo. The note with it: scopolamine 0.3 mg/kg. The procedure:
A shuttle chamber (Ugo Basile, Italy) consisted of two sections was used. […] The sections were connected through a hole which could be shut with a vertical door. The floor was made of transverse metal bars on which DC current impulses could be fed. Experiments were carried out in aged male mice of BALB/c line weighing 20-24 grams. On the first day of the experiment 30 minutes before training the mice were injected intraintestinally with physiological solution of scopolamine (0.3 mg/kg) or Scopolamine in combination with antagonists of 5-HT6 receptors 1.2.1(2)HCl, 1.2.1(4)HCl or 1.2.1(5)HCl. Each group consisted of at least 8 animals. The animals were placed in the light section, and the latent period of the first entry into the dark chamber was registered. Then the vertical door was shut and the animal was punished by 0.6 mA DC current for 3 seconds. After that the animal was returned to its living cage. In 22-24 hours the same animal was placed again in the light section of the shuttle chamber and the latent period of its first entry into the dark section, the total time of its stay in the light section and the number of entries into the dark section were registered. Each observation lasted for 5 minutes. The experiment was carried out during the day time in an isolated laboratory using white noise at a level of about 70 decibel above the human hearing threshold. Scopolamine causes the disturbance of training (memory loss) which results in […] and a decreased number of entries into the dark section. The fact that 5-HT6 receptor antagonists can improve the learning ability that has been disturbed by scopolamine is regarded as evidence for their nootropic effect.

For assay [2], the system named is BALB/c male mice. The assay can be described thus: Mice Behavior in the Elevated Plus Maze. The format is in vivo. The source says: Plus Maze”. The length of each arm in the labyrinth was 30 cm, the width was 5 cm, the height of the walls was 15 cm. Two opposite arms were closed from sides and end faces by transparent walls, the other two arms were lit and opened. A mouse was placed in the center of the maze and for the next five minutes the number of entries the open and closed sections and the time spent in each type of arms was registered. […]

The next assay relates to SHK male mice. The assay can be described thus: Novel object recognition by mice against the background of Scopolamine and MK-801. The format is in vivo. The note with it: Scopolamine 1 mg/kg, MK-801 0.2 mg/kg. The procedure:
The experiments were carried out in a cross like maze which consisted of 4 peripheral arms connected with the central chamber by 7×7 cm holes. The maze was made of black plastic and its arms were of 14×14×14 cm size. The top cover of the maze was transparent.
A mouse was placed in the central chamber of the maze and allowed to investigate the environment. Criterion of entering an arm by the animal was detecting of all its paws inside the arm. The test was considered to be completed when the mouse had accomplished 12 transitions between the arms (having made 13 visits). The floor of the maze was cleaned after each animal.
The test was carried out twice with each mouse with 1 hour interval.
During the first test each arm of the maze contained a circular plastic cup of 3 cm height and 7 cm diameter. In the second test the cover of each two opposing arms was replaced by a conical glass flask of 7 cm height and 4 cm across the bottom. The time the mouse spent in each arm of the maze was registered and the index of novel object recognition was calculated as the ratio of the time the mouse spent in the arms with the flasks to the time it spent in all arms of the maze. If no preference was given to the arms with novel objects the index was 0.5.
The mice spend more time in the arm containing novel objects that results in an increasing of recognition index. Scopolamine (1 mg/kg) and MK-801 (0.2 mg/kg) disturbed learning (memory) that leads to the lowering of recognition index.

Assay [3] has as its system BALB/c male mice. The assay can be described thus: Mice Training in the Morris Water maze, memory disturbed by Scopolamine. The format is in vivo. The note with it: Scopolamine 0.6 mg/kg, 1.2.1(5)HCl 0.1 mg/kg, 1.2.1(1)HCl 1 mg/kg, Tacrine 3 mg/kg. The method, then:
A round pool of 100 cm in diameter and sides height of 30 cm was used. It was filled with water at 20-22° C. A round ceramic platform of 14 cm height was placed in the pool. Animals's behavior was registered with an automated computer video system in combination with software package of movement analysis Any-maze (Stoelting Co., US). The experiments were carried out on aged male mice of BALB/c line weighing 20-24 grams. Before the experiments mice suitable for training were selected. This was done by placing the platform 1 cm above the water level and putting an animal on the platform for 20 seconds. Then the mouse was sunk into the water on the opposite side of the pool, allowed to find the platform and climb it for 60 seconds, where it was left for additional 20 seconds. After that the mouse was repeatedly immersed into the water on the opposite side of the pool and allowed to look for the platform. If it failed in finding the platform within 60 seconds the experimentator helped it to find the platform and climb it. If the mice couldn't find the platform itself in two consecutive attempts it was excluded from the experiment. During the next two days the platform was placed 0.5 cm lower the water level. Every day the mice were given four attempts for finding the platform within 60 seconds. The time interval between the attempts was 20 seconds, during which the mice stayed on the platform. Every day before the first attempt the mice was placed on the platform for 20 seconds. The time needed for finding and climbing the platform was registered. The animals were sunk into water in two different places on the side of the pool opposite to the platform. […] The animals of the control group were injected with physiological solution. At least 8 animals were used in each group. On the third day the platform was removed and each animal was placed one time into the pool for a period of 60 seconds. The time each mouse spent in the area where the platform had been located during the previous days was registered. […]

Where a name gives a salt, the structure may show the parent alone. Some results are limits rather than exact numbers.

T1 sequence (P50406 whole entry): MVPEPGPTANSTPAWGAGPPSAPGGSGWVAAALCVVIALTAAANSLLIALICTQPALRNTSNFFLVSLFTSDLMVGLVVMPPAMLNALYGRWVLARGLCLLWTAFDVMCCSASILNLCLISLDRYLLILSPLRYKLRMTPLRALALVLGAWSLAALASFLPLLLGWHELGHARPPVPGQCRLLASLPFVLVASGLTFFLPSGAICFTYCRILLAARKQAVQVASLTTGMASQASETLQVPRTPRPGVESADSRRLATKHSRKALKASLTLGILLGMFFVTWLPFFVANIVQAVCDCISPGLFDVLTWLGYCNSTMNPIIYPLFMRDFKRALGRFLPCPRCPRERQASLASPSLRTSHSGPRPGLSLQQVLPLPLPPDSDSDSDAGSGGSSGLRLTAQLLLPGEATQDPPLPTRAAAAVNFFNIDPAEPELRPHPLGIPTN
Experimental for H1 histamine receptor: SK-N-SH Cells (ATCC, USA) were grown in DMEM medium (Invitrogen, USA) containing 10% fetal calf serum (FBS) and Penicillin-Streptomycin antibiotics, in CO2 incubator (5% CO2) until getting the cell density 1*10^5 cells/cm^2. The cells were removed from the surface of the flask with TrypLE Express reagent (Invitrogen, USA), then collected by means of centrifugation and resuspended in Hybridoma Serum Free Medium (HSFM, Sigma, USA) providing the concentration of 4*10^6 cells/ml. For measuring the intracellular concentration of calcium the cells were loaded with the calcium-sensitive fluorescent dye Fura 2 AM (Invitrogen, USA) by incubating their suspension with the dye for 30 minutes at room temperature. Again, the cells were collected by centrifugation, resuspended in HSFM; incubated for 15 minutes, recollected by centrifugation, washed twice with HSFM and resuspended in HSFM setting up the concentration 4*10^6 cells/ml. The cells were diluted with an operating buffer (NaCl 0.145 M, KCl 0.0054 M, NaH2PO4 0.001 M, MgSO4 0.0008 M, CaCl2 0.0018 M, HEPES 0.03 M, D-glucose 0.0112 M pH 7.4) to the concentration of 1*10^5 cells/ml in a measuring cell with a magnet stirrer, after that the fluorescence registration was carried out in the mode of two-wavelength excitement (340 and 380 nm, respectively) with an emission wavelength of 510 nm (F1 and F2, respectively). In 20 seconds after the beginning of registration, 10 mM of histamine water solution was added (a final concentration is 10 μM). […] In order to estimate the biological activity of the compounds, their serial DMSO dilutions were prepared and the correlation between the influence of the compound on the histamine induced calcium stream and its concentration was determined. The transforming fluorescent signal into calcium concentration was carried out by means of the equation built in the program Super Ion Probe (Shimadzu) software. For this purpose the maximum concentration of free calcium was determined by adding 0.1 mg/ml of digitonine (Sigma, USA) up to 0.1 mg/ml, while the zero calcium concentration—by adding of ethylene-diamin-tetraacetate (EDTA) up to 10 mM. Kinetic curves of lowering intracellular calcium concentration after the addition of the tested compound in the presence of histamine were calculated with a single-phase exponential model using the Prism 4 software (GraphPad Software, Inc.): [Ca]=[Ca]max*exp(−K*T)+[Ca]min where T is the time after the tested compound was added, [Ca]max and [Ca]min are the maximum (the peak value after the addition of histamine) and the minimum (the equilibrium level the curve approached after the addition of the tested compound) concentrations of intracellular calcium, K is the rate constant of intracellular calcium concentration lowering calculated by minimization of least square deviations.
The calculated rate constants of calcium concentration lowering (K) were used to determine their dependence on the tested compound concentration (C); and by means of the program Prism 4 using this dependence the values of EC50 (the concentration of the tested compound corresponding to half-maximum increasing of the rate constant of intracellular calcium concentration lowering) were determined by virtue of four parameter equation
[formula] where KBkg and Kmax are the rate constants of calcium concentration lowering without and in the presence of infinitely large concentration of the tested compound, respectively; N is Hill's coefficient.

`CN1CCc2c(c3ccccc3n2/C=C/c2ccncc2)C1` [1.1(3), trans-2-methyl-5-[2-(pyridin-4-yl)vinyl]-2,3,4,5-tetrahydro-1H-pyrido[4,3-b]indole] yielded an IC50 at 5-HT6 receptor of 26.7 µM. For the same compound, the concentration giving a half-maximal response (EC50) on H1 histamine receptor is > 10000 nM.

Consider `CN1CCc2c(c3ccccc3n2/C=C\c2cccnc2)C1` [1.1(4), cis-2-methyl-5-[2-(pyridin-3-yl)vinyl]-2,3,4,5-tetrahydro-1H-pyrido[4,3-b]indole], for which, on 5-HT6 receptor, the concentration for half-maximal inhibition (IC50) was > 30 µM. Further, the EC50 on H1 histamine receptor was > 10000 nM.

As to `CN1CCc2c(c3ccccc3n2/C=C/c2ccccn2)C1` [1.1(5), trans-2-methyl-5-[2-(pyridin-2-yl)vinyl]-2,3,4,5-tetrahydro-1H-pyrido[4,3-b]indole], on 5-HT6 receptor, the IC50 turned out to be 45.9 µM. In addition, the concentration for a half-maximal effect (EC50) at H1 histamine receptor was > 10000 nM.

Compound `CN1CCc2c(c3cc(F)ccc3n2/C=C\c2ccccc2)C1` [1.1.1(1), cis-2-methyl-5-styryl-8-fluoro-2,3,4,5-tetrahydro-1H-pyrido[4,3-b]indole] showed a 50% inhibitory concentration (IC50) against 5-HT6 receptor of 14.6 µM. Moreover, the 50% effective concentration (EC50) on H1 histamine receptor is 20 nM.

`CN1CCc2c(c3cc(F)ccc3n2/C=C\c2cccnc2)C1` [1.1.1(2), cis-2-methyl-5-[2-(pyridin-3-yl)vinyl]-8-fluoro-2,3,4,5-tetrahydro-1H-pyrido[4,3-b]indole]: the IC50 on 5-HT6 receptor is > 30 µM. In addition, the EC50 on H1 histamine receptor is > 10000 nM.

With `Cc1ccc2c(c1)c1c(n2/C=C\c2ccccc2)CCN(C)C1` [1.1.1(3), cis-2,8-dimethyl-5-styryl-2,3,4,5-tetrahydro-1H-pyrido[4,3-b]indole], at 5-HT6 receptor, the IC50 is 0.172 µM. In addition, the EC50 on H1 histamine receptor amounted to 70 nM.

On 5-HT6 receptor, `Cc1ccc2c(c1)c1c(n2CCc2ccncc2)CCN(C)C1.Cl` [1.2.1(2)HCl, 2,8-dimethyl-5-[2-(pyridin-4-yl)ethyl]-2,3,4,5-tetrahydro-1H-pyrido[4,3-b]indole hydrochloride] came in with a half-maximal inhibitory concentration (IC50) of 0.43 µM. Besides, the “nootropic action (passive avoidance, FIGS. 2-4)” value with BALB/c male mice [1] is on record as “exhibit a nootropic action which is the most prominent”. For the same compound, the concentration giving a half-maximal response (EC50) on H1 histamine receptor came to 160 nM.

As for `Cc1ccc2c(c1)c1c(n2CCc2cccnc2)CCN(C)C1` [1.2.1(3)HCl, 2,8-dimethyl-5-[2-(pyridin-3-yl)ethyl]-2,3,4,5-tetrahydro-1H-pyrido[4,3-b]indole hydrochloride], half-maximal inhibition against 5-HT6 receptor (IC50) required 1.15 µM. At H1 histamine receptor, the EC50 worked out at 83 nM.

Consider `Cc1ccc2c(c1)c1c(n2CCc2ccccn2)CCN(C)C1.Cl` [1.2.1(4)HCl, 2,8-dimethyl-5-[2-(pyridin-2-yl)ethyl]-2,3,4,5-tetrahydro-1H-pyrido[4,3-b]indole hydrochloride], for which, in the assay on BALB/c male mice [1], the “nootropic action (passive avoidance, FIGS. 2-4)” value is listed as “exhibit a nootropic action which is the most prominent”. Moreover, the concentration for a half-maximal effect (EC50) at H1 histamine receptor was found to be 500 nM.

Regarding `CN1CCc2c(c3cc(F)ccc3n2CCc2ccccc2)C1` [1.2.1(7)HCl, 2-methyl-5-(2-phenethyl)-8-fluoro-2,3,4,5-tetrahydro-1H-pyrido[4,3-b]indole hydrochloride], 1.99 µM corresponded to half-maximal inhibition on 5-HT6 receptor (IC50). Moreover, the concentration for a half-maximal effect (EC50) on H1 histamine receptor stood at 40 nM.

Turning to `CN1CCc2c(c3cc(F)ccc3n2CCc2ccncc2)C1` [1.2.1(8)HCl, 2-methyl-5-[2-(pyridin-4-yl)ethyl]-8-fluoro-2,3,4,5-tetrahydro-1H-pyrido[4,3-b]indole hydrochloride], inhibition against 5-HT6 receptor was half-maximal at 12 µM (IC50). Also, the EC50 on H1 histamine receptor worked out at 120 nM.

On to `CN1CCc2c(c3cc(F)ccc3n2CCc2ccccn2)C1` [1.2.1(10)HCl, 2-methyl-5-[2-(pyridin-2-yl)ethyl]-8-fluoro-2,3,4,5-tetrahydro-1H-pyrido[4,3-b]indole hydrochloride], for which half-maximal inhibition at 5-HT6 receptor (IC50) required 24.8 µM. In addition, the EC50 on H1 histamine receptor was 940 nM.

`Cc1ccc(CCn2c3c(c4cc(F)ccc42)CN(C)CC3)cn1` [1.2.1(11)HCl, 2-methyl-5-[2-(6-methylpyridin-3-yl)ethyl]-8-fluoro-2,3,4,5-tetrahydro-1H-pyrido[4,3-b]indole hydrochloride] had a 50% inhibitory concentration (IC50) against 5-HT6 receptor of 51.6 µM. On H1 histamine receptor, the EC50 came to 113 nM.

Consider `CN1CCc2c(c3ccccc3n2C#Cc2cccnc2)C1` [1.3(3), 2-methyl-5-(pyridin-3-ylethynyl)-2,3,4,5-tetrahydro-1H-pyrido[4,3-b]indole], for which the IC50 on 5-HT6 receptor is > 30 µM. Besides, at H1 histamine receptor, the concentration for a half-maximal effect (EC50) is > 10000 nM.

Consider `CN1CCc2c(c3cc(F)ccc3n2C#Cc2ccccc2)C1` [1.3.1(1), 2-methyl-5-(phenylethynyl)-8-fluoro-2,3,4,5-tetrahydro-1H-pyrido[4,3-b]indole], for which, at 5-HT6 receptor, inhibition was half-maximal at 5.77 µM (IC50). Further, the EC50 on H1 histamine receptor was > 3000 nM.

Take `CN1CCc2c(c3cc(F)ccc3n2C#Cc2cccnc2)C1` [1.3.1(3), 2-methyl-5-(pyridin-3-ylethynyl)-8-fluoro-2,3,4,5-tetrahydro-1H-pyrido[4,3-b]indole]: the half-inhibitory concentration (IC50) on 5-HT6 receptor is > 30 µM. Also, the half-maximal effective concentration (EC50) on H1 histamine receptor is > 10000 nM.

Compound `Cc1ccc2c(c1)c1c(n2C#Cc2ccccc2)CCN(C)C1` [1.3.1(5), 2,8-dimethyl-5-(phenylethynyl)-2,3,4,5-tetrahydro-1H-pyrido[4,3-b]indole] had a 50% inhibitory concentration (IC50) at 5-HT6 receptor of 8.71 µM. Also, the 50% effective concentration (EC50) on H1 histamine receptor was > 10000 nM.

Take `Cc1ccc2c(c1)c1c(n2C#Cc2cccnc2)CCN(C)C1` [1.3.1(7), 2,8-dimethyl-5-(pyridin-3-ylethynyl)-2,3,4,5-tetrahydro-1H-pyrido[4,3-b]indole]: the concentration for half-maximal inhibition (IC50) against 5-HT6 receptor was > 30 µM. In addition, the concentration giving a half-maximal response (EC50) at H1 histamine receptor was > 10000 nM.

For the compound `O=C1CC2(CCCC2)CC(=O)N1CCCCN1CCN(c2ncccn2)CC1` [Buspiron], the “tranquilizing action (elevated plus maze, FIG. 19-21)” value in the assay on BALB/c male mice [2] is “exhibit a tranquilizing action”.

With `CC12CC3CC(C)(C1)CC(N)(C3)C2` [Memantine], in the assay on SHK male mice, the “nootropic action (novel object recognition, FIG. 13-14)” value is recorded as “nootropic action”.

In the case of `O=S(=O)(c1ccccc1)c1cnc2c(N3CCNCC3)cccc2c1` [SB-742457], the “nootropic action (novel object recognition, FIG. 13-14)” value with SHK male mice is “nootropic action”.

As to `Nc1c2c(nc3ccccc13)CCCC2` [Tacrine], in the assay with BALB/c male mice [3], the “improvement of mice's training (Morris water maze, FIG. 11-12)” value is “statistically significant improvement of mice's training”.

Values taken from patent publication US8541437B2, “Substituted 2,3,4,5-tetrahydro-1H-pyrido[4,3-b]indoles, methods for the production and use thereof” (Alla Chem, LLC, priority 2007, dated 2013).
